Experimental data taken from patent US20040142888A1, “Modulators of RabGGT and methods of use thereof” (priority 2002, published 2004).
Read-outs that look alike come from different tables or passages of the source.

Legend:
[1] = molecular target: Farnesyl Transferase (FT) (Homo sapiens, UniProt P49354+P49356); assay: Biochemical assay for inhibition of farnesyl transferase (FT)
Method: Biochemical assays for inhibition of FT were performed as described by Mann et al. (1995, Drug Dev. Res. 34: 121) with the modifications described by Ding et al. (1999, J. Med. Chem., 42:5241)

[2] = test system: HCT-116 human colon tumor cells; assay: Compound-induced apoptosis in HCT-116 human colon tumor cells (microscopy for morphological markers); format: cell-based
Method: HCT-116 human colon tumor cells obtained from the American Type Culture Collection (ATCC) were grown in McCoy's 5A culture medium with 10% heat inactivated FBS, 1× penicillin/streptomycin, and 25 mM HEPES, in an incubator maintained at 37° C. with CO2 at 6-7% and humidity at 95%. Cells were treated with compounds using a dose range from 0.04 μM to 100 μM. After 48 hours they were examined by microscopy for signs of cell rounding, vaccuolation, and nuclear condensation. These are morphological markers associated with apoptosis, and are consistent with results obtained by performing an assay for nucleosomal DNA, or a TdT-mediated dUTP nick end labeling (TUNEL) assay.
The concentrations cited are the minimal concentration required to induce these morphological changes in 50% of the treated cells.

C. elegans germline = assay: Apoptosis in the C. elegans germline (apoptotic corpses per germline arm), after compound and/or RNAi treatment; format: in vivo; conditions: wild-type worms, compound 1.5 mM
Method: The compounds were applied to early larval and adult C. elegans hermaphrodites by mixing a concentrated DMSO solution of the compound with heat-killed OP50 bacteria in a salt solution. The bacteria were then applied to agar plates and worms of the appropriate age seeded onto the plates. Compounds 7A, 7B, 7C, 7D, 7H, 7I and 7J were applied to worms at a final concentration of 1.5 mM. and the resulting visible phenotypes analyzed. The phenotype of apoptosis in C. elegans was quantified as follows: Germ cells in the C. elegans hermaphrodite gonad progress through various stages of differentiation to become mature ova. At the pachytene stage of meiotic prophase, some germ cells undergo programmed cell death (apoptosis) as part of normal development. The apoptotic corpses resulting from this process can be visualized by high-resolution Nomarski optics and are readily distinguishable cells to the trained eye from viable germ cells by their compact, button-like appearance. Necrotic cells, which are rarer, have a less compact appearance. Apoptosis is most reliably distinguished from necrosis, however, by its requirement for the core apoptotic machinery, such as a functional caspase/ced-3 gene. Since C. elegans has symmetrical anterior and posterior gonad structures, referred to as “arms”, apoptosis is scored by visually counting the apoptotic corpses present in a 1-2 day old adult in each germline arm. Normal, untreated worms rarely contain more than 2 corpses per arm. In a treated sample, the number of worms that contain more than 2 corpses provides a very accurate indicator of the apoptotic effect of the treatment. Early larval and adult C. elegans hermaphrodites were treated with compound and the phenotype of apoptosis in the germline arm was quantified as described in Example IV. DNA encoding GGTase alpha/[…].2 (GenBank entry NM-067966) and GGTase beta/B0280.1 (GenBank entry NM 066158) was amplified from a C. elegans genomic DNA template by PCR (Takara LA Taq DNA polymerase) using oligonucleotides containing gene-specific priming sequences that were flanked by sequences encoding the T7 polymerase priming site. The gene-specific priming sequences targeted the first 5 exons of B0280.1 (product size 2 kiloBases) and the first four exons of […].2 (product size 1 kiloBases). The PCR products were analyzed by gel electrophoresis to confirm that the correct product size was obtained. RNA was transcribed from the PCR product using the MEGAscript High Yield Transcription Kit (Ambion) according to manufacturer's instructions. Directly after transcription, the RNA was annealed by heating to 68° C. for 20 minutes. The double stranded RNA (dsRNA) was checked for product quality by gel electrophoresis. The dsRNA was then ethanol-precipitated, washed once with 100% ethanol and twice with 70% ethanol and the pellet was allowed to air dry for 30 minutes. The dsRNA was re-suspended in 1× IM buffer (20 mM KPO4, 3 mM potassium citrate, 2% PEG 6000) in volume equal to the original in vitro transcription reaction, and stored at -20° C. For RNAi treatment of worms, wild type animals at the L2/L3 stage of development were collected in M9 buffer at 50 animals/μl (M9 is 0.044 M KH2PO4, 0.085 M Na2HPO4, 0.18 M NaCl and 1 mM MgSO4). 1 μl of this nematode suspension was added to 3 μl of dsRNA and incubated for 24 hours in a sealed 96 well plate at 20° C. in a humidified chamber. Animals were allowed to develop to adulthood before compound treatment and/or assay of germline apoptosis as described in Example IV. Early larval and adult C. elegans hermaphrodites were treated with compound as described in Example IV. RNAi preparation and treatment was performed as described in Example VI. The phenotype of apoptosis in the germline arm was quantified as described in Example IV. Early larval and adult C. elegans hermaphrodites were treated with compound as described in Example IV. RNAi preparation and treatment was performed as described in Example VI. […]

[3] = HCT-116, 48 h, HCT116 cells, 48 hours, minimal concentration inducing apoptotic morphological changes in 50% of treated cells, read-out: 50% APOPTOTIC
[4] = HCT-116, minimum concentration required to achieve apoptosis of 50% of the HCT116 cells (Table 7), read-out: HCT116 50% apoptosis
[5] = HCT-116, minimum concentration required to achieve apoptosis of 50% of the HCT116 cells (Table 8), read-out: HCT116 50% apoptosis

SMILES	IC50 [1] [nM]	IC90 [1] [nM]	EC50 [2, 3] [nM]	EC50 [2, 4] [nM]	EC50 [2, 5] [nM]	% arms with >2 corpses (C. elegans germline) [%]	Corpses/germline arm, mean (C. elegans germline)	Frequency: germline arms with 0 apoptotic corpses (C. elegans germline)	Frequency: germline arms with 1 apoptotic corpse (C. elegans germline)	Frequency: germline arms with 2 apoptotic corpses (C. elegans germline)	Frequency: germline arms with 3 apoptotic corpses (C. elegans germline)	Frequency: germline arms with 4 apoptotic corpses (C. elegans germline)	Frequency: germline arms with >4 apoptotic corpses (C. elegans germline)	effect on mean number of apoptotic corpses in the germline (C. elegans germline)	EC50 ([2]; HCT-116, 48 h, HCT-116 cells, 48 hours, read-out: minimum effective concentration (apoptosis in 50% of cells)) [nM]
Cn1cncc1CN1C[C@@H](Cc2ccccc2)N(S(=O)(=O)c2cccs2)Cc2cc(C#N)ccc21 [Compound 7J]	0.8	7	2500	2500	2500	59	2.8	3	4	1	4	4	3	increasing the mean number of apoptotic corpses in the germline	
COc1ccc(S(=O)(=O)N2Cc3cc(C#N)ccc3N(Cc3cncn3C)C[C@H]2Cc2ccccc2)cc1 [Compound 7I]	1.4	11	40	40	40	33	2.3	1	3	3	1	2	1	increasing the mean number of apoptotic corpses in the germline	40
COc1ccc(S(=O)(=O)N2Cc3cc(C#N)ccc3N(Cc3cnc[nH]3)C[C@H]2Cc2ccccc2)cc1 [Compound 7A]	2.4	30	3700	3300	3300	36	2.0	1	4	2	3	0	1	increasing the mean number of apoptotic corpses in the germline	
N#Cc1ccc2c(c1)CN(S(=O)(=O)N1CCCCC1)[C@H](Cc1ccccc1)CN2Cc1cnc[nH]1 [Compound 7B]	7.8	110	370	370	370	92	6.9	0	0	1	1	0	10		
CCCS(=O)(=O)N1Cc2cc(C#N)ccc2N(Cc2cnc[nH]2)C[C@H]1Cc1ccccc1 [Compound 7H]	4.1	360	370	370	370	29	1.6	5	4		3	2	0	increasing the mean number of apoptotic corpses in the germline	
